This note sets out measurements from PubChem BioAssay (NCI).

The structures appear in SMILES notation.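 Assay format: 96-well plates, 48-hour exposure. GI50: concentration for 50% inhibition of growth. TGI is the concentration that stops growth completely.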

Some test systems named below: EKVX NSCLC; MOLT-4 leukemia; BT-549 breast; T-47D breast; KM12 colon; 786-0 renal; UACC-62 melanoma; PC-3 prostate; NCI-H460 lung; SNB-19 CNS.
Assay in all cases: NCI tumour cell line growth inhibition, 48 h

For `C(=C\c1nccc2c1[nH]c1ccccc12)/c1ccccc1`, the GI50 in the assay on EKVX NSCLC was 1.72 µM; in the assay with MOLT-4 leukemia it was 2.84 µM; in the assay with BT-549 breast it was 2.22 µM; in the assay on T-47D breast, 3.6 µM; with KM12 colon it was 2.15 µM; in the assay on 786-0 renal it was 3.49 µM. In addition, the GI50 in the assay with UACC-62 melanoma was 3.48 µM; in the assay on PC-3 prostate, 2.82 µM; in the assay with NCI-H460 lung it was 3.28 µM; with SNB-19 CNS, 4.4 µM. Besides, the TGI in the assay on EKVX NSCLC was 59.6 µM; in the assay on MOLT-4 leukemia, 22.3 µM; with BT-549 breast it was 10.2 µM; in the assay with T-47D breast it was 28.2 µM; with KM12 colon, 11.3 µM; in the assay on 786-0 renal it was 10.7 µM. Moreover, the TGI was 23.9 µM in the assay on UACC-62 melanoma, above 100 µM in the assay on PC-3 prostate, 13.7 µM in the assay on NCI-H460 lung and 48.4 µM with SNB-19 CNS.
On to `CC(C)(C)OC(=O)CN1CCc2c(sc3ncnc(N/N=C/c4cccc5ccccc45)c23)C1`, for which the GI50 was 2.22 µM in the assay on EKVX NSCLC; 1.26 µM with MOLT-4 leukemia; 6.03 µM in the assay on BT-549 breast; 1.83 µM with T-47D breast; 3.53 µM with KM12 colon; 4.11 µM in the assay with 786-0 renal. Further, the GI50 with UACC-62 melanoma is 1.32 µM; in the assay with PC-3 prostate, 2.04 µM; with NCI-H460 lung, 1.62 µM; with SNB-19 CNS it was 4.73 µM. In addition, the TGI in the assay with EKVX NSCLC was above 33.3 µM; in the assay with MOLT-4 leukemia, 9.39 µM; in the assay with BT-549 breast, above 33.3 µM; with T-47D breast it was 17.9 µM; in the assay on KM12 colon it was 9.8 µM; in the assay with 786-0 renal it was 16.4 µM. For the same compound, the TGI is 5.48 µM in the assay on UACC-62 melanoma, above 33.3 µM with PC-3 prostate, 6.22 µM in the assay with NCI-H460 lung and 32.1 µM with SNB-19 CNS.
On to `COc1ccc(/C=C/C(=O)c2cc3c(N)c(C(=O)Nc4ccccc4C)sc3nc2C)cc1`, for which the GI50 in the assay with EKVX NSCLC is 1.88 µM; in the assay with MOLT-4 leukemia, 0.747 µM; in the assay on BT-549 breast, 0.568 µM; in the assay with T-47D breast, 0.322 µM; in the assay on KM12 colon it was 1.07 µM; with 786-0 renal it was 0.489 µM. Moreover, the GI50 with UACC-62 melanoma is 0.275 µM; with PC-3 prostate it was 0.285 µM; in the assay on NCI-H460 lung, 1.53 µM; with SNB-19 CNS it was 1.15 µM. Also, the TGI in the assay with EKVX NSCLC is above 50 µM; with MOLT-4 leukemia it was above 50 µM; in the assay on BT-549 breast, above 50 µM; with T-47D breast, above 50 µM; in the assay on KM12 colon it was 4.8 µM; with 786-0 renal, above 50 µM. For the same compound, the TGI with UACC-62 melanoma was above 50 µM; in the assay on PC-3 prostate it was above 50 µM; in the assay on NCI-H460 lung, above 16.6 µM; with SNB-19 CNS, above 50 µM.
Take `O=S(=O)(O)/C(=C\c1ccccc1)c1ccccc1` (tested in a mixture with another compound): the TGI with EKVX NSCLC, in the assay with MOLT-4 leukemia, in the assay on BT-549 breast, in the assay on T-47D breast, in the assay on KM12 colon and with 786-0 renal was above 100 µM throughout. Moreover, the TGI in the assay on UACC-62 melanoma, in the assay on PC-3 prostate, with NCI-H460 lung and with SNB-19 CNS was above 100 µM throughout.
`C=CCC(N[C@H](CO)c1ccccc1)c1cn(S(=O)(=O)c2ccc(C)cc2)c2ccccc12` (stereo not given in full): the GI50 with EKVX NSCLC was 25.2 µM; with MOLT-4 leukemia, 15.2 µM; with BT-549 breast, 20.5 µM; in the assay on T-47D breast, 55.9 µM; with KM12 colon, 19.8 µM; with 786-0 renal, above 100 µM. In addition, the GI50 was 15.1 µM in the assay on UACC-62 melanoma, 17.8 µM in the assay with PC-3 prostate, above 100 µM in the assay with NCI-H460 lung and 60.8 µM in the assay with SNB-19 CNS. The TGI was 74.8 µM in the assay with EKVX NSCLC; 41.4 µM with MOLT-4 leukemia; 46.5 µM in the assay with BT-549 breast; above 100 µM in the assay on T-47D breast; 68.4 µM in the assay with KM12 colon; above 100 µM in the assay on 786-0 renal. In addition, the TGI was 29.7 µM in the assay on UACC-62 melanoma, 77.1 µM with PC-3 prostate, above 100 µM with NCI-H460 lung and above 100 µM in the assay with SNB-19 CNS.
As for `COc1cc2cc(Oc3ccc(NC(=O)Nc4ccc(Cl)c(C(F)(F)F)c4)cc3)c(C)nc2cc1OC`, the GI50 in the assay with EKVX NSCLC is 1.01 µM; with MOLT-4 leukemia, 1.14 µM; in the assay with BT-549 breast, 0.981 µM; in the assay with T-47D breast, 1.21 µM; with KM12 colon, 1.07 µM; in the assay on 786-0 renal, 1.17 µM. The GI50 was 1.24 µM with UACC-62 melanoma, 0.781 µM with PC-3 prostate, 1.07 µM in the assay with NCI-H460 lung and 1.41 µM in the assay with SNB-19 CNS. Moreover, the TGI in the assay on EKVX NSCLC worked out at 3.75 µM; in the assay with MOLT-4 leukemia, 5.49 µM; with BT-549 breast it was 4.59 µM; in the assay on T-47D breast it was 7.9 µM; with KM12 colon, 3.85 µM; in the assay on 786-0 renal it was 4.96 µM. In addition, the TGI came to 6.01 µM with UACC-62 melanoma, 2.96 µM in the assay on PC-3 prostate, 3.57 µM in the assay on NCI-H460 lung and 5.31 µM in the assay on SNB-19 CNS.
Consider `O=C(O)c1cc(Cc2ccc(O)c(C(=O)O)c2)ccc1O` (tested in a mixture with another compound), for which the GI50 is 4.82 µM in the assay on EKVX NSCLC; 2.66 µM in the assay with MOLT-4 leukemia; 3.13 µM in the assay on BT-549 breast; 2.67 µM in the assay with T-47D breast; 4.39 µM in the assay with KM12 colon; 9.64 µM in the assay with 786-0 renal. Also, the GI50 in the assay with UACC-62 melanoma is 4.73 µM; in the assay with PC-3 prostate it was 3.58 µM; in the assay with NCI-H460 lung, 3.53 µM; in the assay on SNB-19 CNS it was 12.8 µM. Moreover, the TGI with EKVX NSCLC was 18 µM; in the assay with MOLT-4 leukemia, above 100 µM; in the assay with BT-549 breast it was 16.6 µM; with T-47D breast, 13.2 µM; in the assay on KM12 colon, 19.1 µM; in the assay with 786-0 renal, 25.2 µM. The TGI came out at 19.9 µM in the assay with UACC-62 melanoma, 19.2 µM in the assay with PC-3 prostate, 17.4 µM with NCI-H460 lung and 28.2 µM in the assay on SNB-19 CNS.
For `C#Cc1cccc(Oc2ccc(NC(=O)CCl)cc2)c1`, the GI50 is above 82.5 µM with EKVX NSCLC; 10.8 µM in the assay with MOLT-4 leukemia; 37.2 µM in the assay on BT-549 breast; above 82.5 µM in the assay with T-47D breast; above 82.5 µM with KM12 colon; above 82.5 µM in the assay with 786-0 renal. The GI50 in the assay on UACC-62 melanoma is above 82.5 µM; in the assay on PC-3 prostate it was above 82.5 µM; in the assay on NCI-H460 lung, 25.3 µM; with SNB-19 CNS it was above 82.5 µM. The TGI in the assay with EKVX NSCLC was above 82.5 µM; in the assay on MOLT-4 leukemia it was 77.1 µM; in the assay with BT-549 breast, above 82.5 µM; in the assay on T-47D breast, above 82.5 µM; with KM12 colon, above 82.5 µM; with 786-0 renal, above 82.5 µM. For the same compound, the TGI with UACC-62 melanoma, with PC-3 prostate, in the assay on NCI-H460 lung and in the assay on SNB-19 CNS was above 82.5 µM in each case.
